The source of these data is patent US20110152263A1, “COMPOSITION AND METHOD FOR INHIBITING NOROVIRUS INFECTION” (priority 2006, published 2011).

Broadly, the EC50 is the concentration giving half of the maximal effect. A word on the CC50: it is the concentration giving 50% cytotoxicity. Read a high CC50 as better tolerance by the cells.

The target in series [1] is VA387 VLPs binding to the A antigen. Put plainly: Saliva-based blocking EIA: VA387 VLP binding to type A saliva. The note with it: read-out: EC50 rVA387 A. Also on record: species or system Norovirus. The source says: (§1) A saliva based blocking assay offers several advantages for anti-Norovirus agent screening. First, the assay is a solid phase blocking assay which is simple and suitable for large scale screening. Second, the source of HBGAs used in the assay was from healthy human volunteers, which is likely to represent the natural forms of Norovirus receptors. Third, the assay is highly sensitive and specific. Finally, a panel of saliva samples can be assembled from different individuals representing different blood types, from which the results obtained in primary screenings can be validated.
(§2) To optimize the blocking assays, we have titrated all reagents used in the assays including the VLPs, the first and second antibodies, the blocking reagent (dried cow milk), and a panel of saliva samples from different donors. […] For comparison of daily results, eight control wells containing everything but compounds were included in each plate, and the assays were considered valid when the daily OD450 variations in these wells were less than 20%. Less than 1% of the total screening runs failed in our study.
(§3) Cow milk contains a large amount of variable proteins, lipids and glycans which can easily interfere with the assay particularly when a low concentration of compounds (μM) was used in our screening. To avoid any false-negative results, the step of addition of blotto in the EIA for all screening experiments in this study was removed.
(§4) Baculovirus-expressed recombinant capsid proteins of four Norovirus strains representing four distinct receptor binding patterns were studied: Norovirus strains Norwalk, VA387, VA207, and MOH. The procedures of production of Norovirus VLPs in insect cell Spodoptera frugiperda (Sf9) have described in “Expression, self-assembly, and antigenicity of the Norwalk virus capsid protein”, J Virol 66:6527-32, Jiang et al (1992), and in “Baculovirus expression and antigenic characterization of the capsid proteins of three Norwalk-like viruses”, Arch Virol 147:119-30, Jiang et al. (2002), the disclosures of which are incorporated herein by reference. Briefly, a cDNA from the 3′ end of the genome containing the viral capsid gene (open reading frame 2 [ORF-2] was cloned from the viral RNA extracted from stool specimens. The recombinant baculoviruses carry the viral capsid genes were constructed from the cloned cDNAs using the Bac to Bac expression system according to the manufacture's instructions (Invitrogen Life Technologies, Carlsbad, Calif.). VLPs were partially purified by sucrose gradient centrifugation and stored at −80° C. Protein concentrations were determined by measuring the optical density at 280 nm (OD280) using a GeneQuant spectrophotometer (Pharmacia, Mich.) and by comparison with a bovine serum albumin standard in a sodium dodecyl sulfate-polyacrylamide gel (25). The purity of VLPs used in this study was over 90% which was determined by SDS-PAGE analysis.
(§5) Saliva samples were collected from healthy adult volunteers under an approval of human subject research protocol by the Institutional Review Board at the Cincinnati Children's Hospital Medical Center. Except for gender and race, no other personal information was collected. A total of 5-10 ml of saliva was collected from each volunteer, and the samples were processed immediately after collection. To avoid potential Norovirus-specific antibodies that may interfere in the receptor binding assays, saliva samples were boiled at 100° C. for 10 min, and then centrifuged at 10,000×g for 5 min. The clear supernatant was stored at −80° C. until use. The HBGA types of the saliva samples were determined by enzyme immune assays with monoclonal antibodies specific to human HBGAs (8). Saliva sample from a type A donor was selected for the primary screening, and a total of 25 saliva samples of known ABO, secretor, and Lewis types were selected for further studies to confirm the primary screening results. […]

Series [2] deals with MOH binding to the B antigen. Briefly: Saliva-based blocking EIA: MOH VLP binding to B antigen. Also on record: species or system Norovirus. The conditions noted are these: MOH VLP binding to type B saliva; read-out: EC50 rMOH B.
Source text: as §1, §2, §3, §4, §5

For series [3], the target named is VA387 binding to the H antigen. Briefly: Saliva-based blocking EIA: VA387 VLP binding to H antigen. Further details: species or system Norovirus. The note with it: for EC50: VA387 VLP binding to H antigen saliva, read-out: EC50 rVA387 H; for inhibition of VA387 binding to the H antigen: one saliva sample.
Source text: as §1, §2, §3, §4, §5

Series [4] has as its target VA207 binding to the Lewis antigens. Put plainly: Saliva-based blocking EIA: VA207 VLP binding to Lewis antigens. Also on record: species or system Norovirus. The note with it: VA207 VLP binding to Lewis antigen; read-out: EC50 rVA207 Le.
Source text: as §1, §2, §3, §4, §5

Series [5] addresses VA387 binding to the B antigen. Put plainly: Saliva-based blocking EIA: VA387 VLP binding to B antigen. Also on record: species or system Norovirus. The conditions noted are these: for EC50: VA387 VLP binding to B antigen saliva, read-out: EC50 rVA387 B; for inhibition of VA387 binding to the B antigen: one saliva sample.
Source text: as §1, §2, §3, §4, §5

The target of series [6] is MOH binding to the A antigen. Put plainly: Saliva-based blocking EIA: MOH VLP binding to A antigen. Further details: species or system Norovirus. The note with it: MOH VLP binding to type A saliva; read-out: EC50 rMOH A.
Source text: as §1, §2, §3, §4, §5

Series [7] relates to Norwalk virus binding to the H antigen. Briefly: Saliva-based blocking EIA: Norwalk virus VLP binding to H antigen. The note with it: for EC50: Norwalk VLP binding to H antigen, read-out: EC50 rNorwalk H. Further details: species or system Norovirus.
Source text: as §1, §2, §3, §4, §5

Series [8] has as its system Human cervical carcinoma cells (HeLa). Briefly: MTS cytotoxicity assay, HeLa cells. The class given is cell-based. The conditions noted are these: 3 days, average of three experiments.
Series [9] deals with Norwalk virus binding to the A antigen. Put plainly: Saliva-based blocking EIA: Norwalk virus VLP binding to A antigen. Also on record: species or system Norovirus. The note with it: for EC50: Norwalk VLP binding to A antigen, read-out: EC50 rNorwalk A.
Source text: as §1, §2, §3, §4, §5

For `Cc1cc(O)c(Sc2c(O)cc(C)cc2C(C)(C)c2ccccc2)c(C(C)(C)c2ccccc2)c1` [Compound 13], the EC50 in [1] was 13.6 µM; in series [2] it was greater than 100 µM; in series [3] it was 48.1 µM; in [4] it was greater than 100 µM; in series [5] it was 49.5 µM; in series [6], greater than 100 µM. The EC50 in [7] and in [9] was greater than 100 µM in each case. Moreover, the “inhibition of VA387 binding to the H antigen” value in series [3] is on record as “dose-dependant inhibition”. For the same molecule, the “inhibition of VA387 binding to the B antigen” value (from here on “inhibition … to the B antigen”) in series [5] was “dose-dependant inhibition”. The CC50 in series [8] worked out at 70.6 µM.
Consider `O=C(/C=C/c1ccc(-c2cc(Cl)cc(Cl)c2)o1)c1cccs1` [Compound 8], for which the EC50 is 10.9 µM in series [1]; greater than 100 µM in series [2]; greater than 100 µM in series [3]; greater than 100 µM in series [4]; greater than 100 µM in series [5]; greater than 100 µM in series [6]. Moreover, the EC50 in series [7] and in series [9] was greater than 100 µM in each case. Further, the “inhibition of VA387 binding to the H antigen” value in series [3] is “did not have any inhibitory activity”. In addition, the “inhibition … to the B antigen” value in [5] is “did not have any inhibitory activity”.
On to `O=C(C(=O)c1ccc(C(=O)c2ccc(C(=O)C(=O)c3ccc(Sc4ccccc4)cc3)cc2)cc1)c1ccc(Sc2ccccc2)cc1` [Compound 11], for which the concentration giving a half-maximal response (EC50) was 12.8 µM in series [1]; greater than 100 µM in [2]; 26.1 µM in series [3]; greater than 100 µM in series [4]; 35.3 µM in series [5]; greater than 100 µM in series [6]. The EC50 in series [7] and in series [9] was greater than 100 µM in each case. For the same molecule, the “inhibition of VA387 binding to the H antigen” value in series [3] is given as “dose-dependant inhibition”. For the same molecule, the “inhibition … to the B antigen” value in [5] is reported as “dose-dependant inhibition”.
For `Oc1ccc(C=Nc2nccs2)c(O)c1` [Compound 7], the EC50 was 9.6 µM in [1]; greater than 100 µM in series [2]; 7.6 µM in series [3]; greater than 100 µM in series [4]; 26 µM in series [5]; greater than 100 µM in series [6]. Moreover, the EC50 in series [7] and in series [9] was greater than 100 µM each time. For the same molecule, the “inhibition of VA387 binding to the H antigen” value in series [3] is “dose-dependant inhibition”. In addition, the “inhibition … to the B antigen” value in series [5] is “dose-dependant inhibition”.
With `CCC[n+]1cc(-c2ccccc2)nc(N2CCOCC2)n1.[I-]` [Compound 1], the EC50 was 2.2 µM in series [1]; greater than 100 µM in series [2]; 6.8 µM in [3]; greater than 100 µM in series [4]; 5.8 µM in series [5]; greater than 100 µM in [6]. Further, the EC50 in series [7] amounted to 18.9 µM; in series [9] it was 15.6 µM. Besides, in series [3], the “inhibition of VA387 binding to the H antigen” value was “dose-dependant inhibition”. Besides, in series [5], the “inhibition … to the B antigen” value is given as “dose-dependant inhibition”. For the same molecule, the “inhibition of Norwalk virus binding to the H antigen” value (“inhibition of Norwalk virus binding” below) in series [7] is “inhibited”. Moreover, the “blocking of Norwalk virus binding to the A antigen” value (“blocking of Norwalk virus binding” for short) in series [9] is reported as “blocked”.
For the molecule `CCOC(=O)C1=C(C)OC(N)=C(C#N)C1c1ccc(OCc2ccc(C)cc2)c([N+](=O)[O-])c1` (stereo not drawn) [Compound 2], the EC50 in series [1] is 4.8 µM; in series [2], 13.3 µM; in series [3], 11.9 µM; in series [4] it was greater than 100 µM; in [5], 18.6 µM; in series [6] it was 16.5 µM. Also, the EC50 in [7] was determined as 24.5 µM; in [9], 22.9 µM. For the same molecule, in [3], the “inhibition of VA387 binding to the H antigen” value is on record as “dose-dependant inhibition”. The “inhibition … to the B antigen” value in [5] was “dose-dependant inhibition”. Moreover, the “inhibition of Norwalk virus binding” value in series [7] is “inhibited”. Besides, in series [8], the CC50 worked out at 78.6 µM. Besides, the “blocking of Norwalk virus binding” value in series [9] is “blocked”.
Regarding `CC(C)OC(=O)CC(=O)CSc1nc(-c2ccc(F)cc2)cc(-c2cccs2)c1C#N` [Compound 10], the EC50 in series [1] is 11.8 µM; in series [2], greater than 100 µM; in series [3] it was 7.5 µM; in series [4] it was greater than 100 µM; in [5], 7.9 µM; in series [6], greater than 100 µM. Besides, the values for the EC50 in [7] and in series [9] were 19.8 µM and 35 µM, respectively. In addition, the “inhibition of VA387 binding to the H antigen” value in series [3] is recorded as “dose-dependant inhibition”. In [5], the “inhibition … to the B antigen” value is on record as “dose-dependant inhibition”. Moreover, the “inhibition of Norwalk virus binding” value in series [7] is reported as “inhibited”. The “blocking of Norwalk virus binding” value in [9] was “blocked”.
For the molecule `C=C(SCCNC(=O)NCCCCCCNC(=O)NCCSc1ccccc1O)C(C)=CC` [Compound 4], the EC50 in [1] was 8.1 µM; in series [2] it was greater than 100 µM; in series [3] it was 14.2 µM; in series [4] it was greater than 100 µM; in series [5] it was 13.1 µM; in series [6] it was greater than 100 µM. Further, the results for the EC50 in series [7] and in series [9] were 22.6 µM and 14.1 µM, respectively. In addition, the “inhibition of VA387 binding to the H antigen” value in series [3] is “dose-dependant inhibition”. Moreover, in [5], the “inhibition … to the B antigen” value is “dose-dependant inhibition”. The “inhibition of Norwalk virus binding” value in series [7] is listed as “inhibited”. For the same molecule, the “blocking of Norwalk virus binding” value in series [9] is reported as “blocked”.
On to `FC(F)(F)c1ccc(N/N=C/c2cc(Br)cs2)cc1` [Compound 15], for which the EC50 in series [1] is 14.1 µM; in series [2] it was greater than 100 µM; in series [3] it was greater than 100 µM; in series [4], greater than 100 µM; in [5], greater than 100 µM; in series [6], greater than 100 µM. In addition, the concentration giving a half-maximal response (EC50) in series [7] was greater than 100 µM; in [9], 22.5 µM. Besides, the “inhibition of VA387 binding to the H antigen” value in series [3] was “did not have any inhibitory activity”. In addition, the “inhibition … to the B antigen” value in series [5] is on record as “did not have any inhibitory activity”. In series [7], the “inhibition of Norwalk virus binding” value is “inhibited”. The CC50 in [8] came out at 7.6 µM. In addition, the “blocking of Norwalk virus binding” value in [9] was “blocked”.
As for `CCCCc1ccc(NC(=O)c2ccc(C)cc2)cc1` [Compound 12], the EC50 in [1] is 12.8 µM; in [2], greater than 100 µM; in series [3], 28.2 µM; in series [4], greater than 100 µM; in [5], 32.5 µM; in [6], greater than 100 µM. Also, the values for the EC50 in series [7] and in series [9] were 47.8 µM and 53 µM, respectively. For the same molecule, the “inhibition of VA387 binding to the H antigen” value in [3] is “dose-dependant inhibition”. In addition, the “inhibition … to the B antigen” value in [5] is “dose-dependant inhibition”. In addition, in series [9], the “blocking of Norwalk virus binding” value was “blocked”.
